From patent US9718813B2, “Imidazolin-5-one derivative useful as FASN inhibitors for the treatment of cancer” (Janssen Pharmaceutica, NV, priority 2013, dated 2017)

How the values were obtained:
[1] = biological target: hFASN enzyme (full length) (Homo sapiens (Human), UniProt P49327); experiment: Fatty Acid Synthase (FASN) Inhibition Scintillation Proximity Assay; assay type: biochemical; settings: 3H-acetyl-CoA and malonyl-CoA substrates, SPA, mean if tested more than once; for IC50: read-out: Human FASN pIC50 (converted)
Sequence of hFASN enzyme (full length) (P49327 whole entry, the tested form may be a part): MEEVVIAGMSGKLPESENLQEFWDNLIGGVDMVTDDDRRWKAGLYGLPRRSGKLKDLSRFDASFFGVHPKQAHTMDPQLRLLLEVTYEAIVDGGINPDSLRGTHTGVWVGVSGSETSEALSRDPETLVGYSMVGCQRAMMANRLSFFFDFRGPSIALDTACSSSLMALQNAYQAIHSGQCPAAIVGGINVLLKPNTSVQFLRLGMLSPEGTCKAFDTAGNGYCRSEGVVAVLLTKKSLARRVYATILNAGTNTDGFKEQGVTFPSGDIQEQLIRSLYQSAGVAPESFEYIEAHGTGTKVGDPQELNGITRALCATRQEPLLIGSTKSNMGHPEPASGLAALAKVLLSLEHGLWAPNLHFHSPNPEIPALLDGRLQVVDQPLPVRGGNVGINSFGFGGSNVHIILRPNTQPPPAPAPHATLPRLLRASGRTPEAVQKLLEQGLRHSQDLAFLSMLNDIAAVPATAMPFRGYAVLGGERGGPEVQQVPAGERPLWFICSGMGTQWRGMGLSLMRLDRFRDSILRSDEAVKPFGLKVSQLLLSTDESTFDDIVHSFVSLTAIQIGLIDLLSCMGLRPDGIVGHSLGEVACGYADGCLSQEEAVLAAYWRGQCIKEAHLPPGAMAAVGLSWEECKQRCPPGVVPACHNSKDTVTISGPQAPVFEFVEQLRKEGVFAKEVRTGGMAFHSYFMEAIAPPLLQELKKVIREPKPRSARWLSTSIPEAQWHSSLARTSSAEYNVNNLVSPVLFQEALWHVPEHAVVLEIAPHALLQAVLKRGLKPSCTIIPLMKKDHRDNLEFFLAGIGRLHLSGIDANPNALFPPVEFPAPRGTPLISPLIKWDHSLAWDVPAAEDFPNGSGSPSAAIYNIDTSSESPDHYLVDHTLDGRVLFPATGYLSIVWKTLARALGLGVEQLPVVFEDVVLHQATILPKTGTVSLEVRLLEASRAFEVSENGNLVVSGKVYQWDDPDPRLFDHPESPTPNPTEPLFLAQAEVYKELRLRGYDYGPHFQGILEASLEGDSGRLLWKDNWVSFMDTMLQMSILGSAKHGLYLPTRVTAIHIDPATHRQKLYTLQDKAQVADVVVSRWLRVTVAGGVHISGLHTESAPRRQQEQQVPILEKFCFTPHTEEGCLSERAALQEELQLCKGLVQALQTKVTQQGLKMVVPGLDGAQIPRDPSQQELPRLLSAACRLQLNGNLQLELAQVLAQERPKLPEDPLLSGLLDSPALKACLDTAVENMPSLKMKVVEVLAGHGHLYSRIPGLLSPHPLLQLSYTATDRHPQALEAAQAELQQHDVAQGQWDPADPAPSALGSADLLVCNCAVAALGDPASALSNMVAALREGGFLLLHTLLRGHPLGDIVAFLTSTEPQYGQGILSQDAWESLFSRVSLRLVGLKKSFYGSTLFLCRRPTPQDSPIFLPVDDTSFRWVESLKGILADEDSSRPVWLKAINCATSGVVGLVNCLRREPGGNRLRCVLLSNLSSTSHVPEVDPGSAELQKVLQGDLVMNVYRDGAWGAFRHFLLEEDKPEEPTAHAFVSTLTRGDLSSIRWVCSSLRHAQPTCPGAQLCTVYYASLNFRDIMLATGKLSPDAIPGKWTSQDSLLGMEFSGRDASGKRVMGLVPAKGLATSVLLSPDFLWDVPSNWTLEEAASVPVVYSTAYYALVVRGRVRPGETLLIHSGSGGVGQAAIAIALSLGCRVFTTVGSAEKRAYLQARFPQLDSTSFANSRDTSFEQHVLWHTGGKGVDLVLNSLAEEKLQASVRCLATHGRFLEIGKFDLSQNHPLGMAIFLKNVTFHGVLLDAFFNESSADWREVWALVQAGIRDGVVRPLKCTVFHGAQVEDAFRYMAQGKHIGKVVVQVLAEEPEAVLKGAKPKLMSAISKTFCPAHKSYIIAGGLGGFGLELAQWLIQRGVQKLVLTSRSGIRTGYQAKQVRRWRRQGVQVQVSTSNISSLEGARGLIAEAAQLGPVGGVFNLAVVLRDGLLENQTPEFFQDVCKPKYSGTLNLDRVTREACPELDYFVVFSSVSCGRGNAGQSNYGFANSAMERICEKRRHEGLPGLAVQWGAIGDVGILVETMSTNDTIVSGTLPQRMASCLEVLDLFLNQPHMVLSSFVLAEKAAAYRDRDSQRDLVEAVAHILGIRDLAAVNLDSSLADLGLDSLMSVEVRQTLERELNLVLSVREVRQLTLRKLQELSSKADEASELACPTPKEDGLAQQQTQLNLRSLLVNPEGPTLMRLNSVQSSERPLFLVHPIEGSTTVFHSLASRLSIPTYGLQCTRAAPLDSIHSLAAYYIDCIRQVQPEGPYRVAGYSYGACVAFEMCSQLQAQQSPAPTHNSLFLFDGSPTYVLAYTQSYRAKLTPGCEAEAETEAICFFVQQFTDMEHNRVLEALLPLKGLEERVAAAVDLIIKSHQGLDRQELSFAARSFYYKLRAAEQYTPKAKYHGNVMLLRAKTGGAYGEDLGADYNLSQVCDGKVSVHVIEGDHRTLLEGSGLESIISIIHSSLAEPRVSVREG
Procedure: In this assay, inhibition of FASN activity is measured using ^3H-acetyl-CoA and malonyl-CoA as substrates. ^3H-Acetyl CoA is converted to ^3H-palmitate through a series of reactions by the FASN protein, which contains 7 functional domains and carries out 7 enzymatic reactions to ultimately produce ^3H-palmitate. The assay principle is based upon the fact that ^3H-acetyl-CoA is hydrophilic and the end product, ^3H-palmitate is hydrophobic.
10 μL assay buffer (100 mM KH2PO4 pH 7.5, 1 mM DTT) (20 μL in blanks) was added to a 384-well white Opti Plate plate (Perkin Elmer). 0.9 μL test compound (at concentrations of 30 μM, 10 μM, 3 μM, 1 μM, 0.30 μM, 0.10 μM, 0.03 μM and 0.01 μM)/DMSO and 10 μL hFASN enzyme (full length, 300 ng, purified in house) or 10 μL assay buffer was added to the wells. […] The reaction was stopped by adding 20 μL Streptavidin coupled imaging beads (25 mg/ml). After incubation for 30 minutes at room temperature in the dark, the 384 well plate was centrifuged at 1500 rpm for 3 minutes and was measured after at least 24 hrs by the LEADseeker™, measuring emission using a 610±20 nm pass filter.
(§1) Raw data generated by the instrument were normalized to % Controlmin values, which were calculated as: % Controlmin=100*(x−mLC)/(mHC−mLC)
(§2) where mLC and mHC were the means of the low control wells and high control wells on the plate, after manual exclusion of outliers. A plot of Controlmin versus test compound concentration was fitted to a 4-parameter logistic curve using a non-linear least squares regression method.

[2] = biological target: FASN Keto-reductase Domain (hFASN enzyme, full length) (Homo sapiens (Human), UniProt P49327); experiment: Fatty Acid Synthase Keto-reductase Domain (FASN KR) Inhibition; assay type: biochemical; settings: NADPH oxidation at 340 nm, ethyl acetoacetate substrate; for IC50: read-out: FASN Keto-reductase Domain pIC50 (converted)
Sequence of FASN Keto-reductase Domain (hFASN enzyme, full length) (P49327 whole entry, the tested form may be a part): as above
Procedure: After 20 minutes incubation at room temperature the plate was measured again (T2).
The decrease in absorbance was calculated as (Absorbance before incubation T1)−(Absorbance following incubation T2).
as §1, §2

| SMILES | IC50 [1] | IC50 [2] | Human FASN pIC50 [1] | FASN Keto-reductase Domain pIC50 [2] |
| --- | --- | --- | --- | --- |
| CC1(c2ccccc2)N=C(c2ccc(-c3ccc4occc4c3)cc2)N(C[C@@H]2CCN(C(=O)C3CC3)C2)C1=O (mixture of isomers) [Compound 5, (4RS)-2-(4-(Benzofuran-5-yl)phenyl)-1-(((R)-1-(cyclopropanecarbonyl)pyrrolidin-3-yl)methyl)-4-methyl-4-phenyl-1H-imidazol-5(4H)-one] | 155 nM | 537 nM |  |  |
| CC1(c2ccccc2)N=C(c2ccc(-c3ccc4[nH]ccc4c3)cc2)N(C[C@@H]2CCN(C(=O)C3CC3)C2)C1=O (mixture of isomers) [Compound 7, (4RS)-2-(4-(1H-Indol-5-yl)phenyl)-1-(((R)-1-(cyclopropanecarbonyl)pyrrolidin-3-yl)methyl)-4-methyl-4-phenyl-1H-imidazol-5(4H)-one] | 72.4 nM | 129 nM |  |  |
| COCC1(C)N=C(c2ccc(-c3ccc4occc4c3)cc2)N(C[C@@H]2CCN(C(=O)C3CC3)C2)C1=O (mixture of isomers) [Compound 8, (4RS)-2-(4-(Benzofuran-5-yl)phenyl)-1-(((R)-1-(cyclopropanecarbonyl)pyrrolidin-3-yl)methyl)-4-(methoxymethyl)-4-methyl-1H-imidazol-5(4H)-one] | 240 nM | 389 nM |  |  |
| CC1(C2CC2)N=C(c2ccc(-c3ccc4occc4c3)cc2)N(C[C@@H]2CCN(C(=O)C3CC3)C2)C1=O (mixture of isomers) [Compound 9, (4RS)-2-(4-(Benzofuran-5-yl)phenyl)-1-(((R)-1-(cyclopropanecarbonyl)pyrrolidin-3-yl)methyl)-4-cyclopropyl-4-methyl-1H-imidazol-5(4H)-one] | 331 nM | 603 nM |  |  |
| CC1(C)N=C(c2ccc(-c3ccc4[nH]ccc4c3)cc2)N(C[C@@H]2CCN(C(=O)C3CC3)C2)C1=O [Compound 1, (R)-2-(4-(1H-Indol-5-yl)phenyl)-1-((1-(cyclopropanecarbonyl)pyrrolidin-3-yl)methyl)-4,4-dimethyl-1H-imidazol-5(4H)-one] |  |  | 7.32 | 6.86 |
| Cn1ncc2cc(-c3ccc(C4=NC(C)(C)C(=O)N4C[C@@H]4CCN(C(=O)C5CC5)C4)cc3)ccc21 [Compound 2, (R)-1-((1-(cyclopropanecarbonyl)pyrrolidin-3-yl)methyl)-4,4-dimethyl-2-(4-(1-methyl-1H-indazol-5-yl)phenyl)-1H-imidazol-5(4H)-one] |  |  | 6.85 | 6.15 |
| CC1(C)N=C(c2ccc(-c3ccc4occc4c3)cc2)N(C[C@@H]2CCN(C(=O)C3CC3)C2)C1=O [Compound 3, (R)-2-(4-(benzofuran-5-yl)phenyl)-1-((1-(cyclopropanecarbonyl)pyrrolidin-3-yl)methyl)-4,4-dimethyl-1H-imidazol-5(4H)-one] |  |  | 7.09 | 6.33 |
| CC1(C)N=C(c2ccc(-c3ccc4occc4c3)cc2)N(C[C@@H]2CCN(C(=O)C3(F)CC3)C2)C1=O [Compound 4, (R)-2-(4-(benzofuran-5-yl)phenyl)-1-((1-(1-fluorocyclopropanecarbonyl)pyrrolidin-3-yl)methyl)-4,4-dimethyl-1H-imidazol-5(4H)-one] |  |  | 6.92 | 6.22 |
| CC1(C)N=C(c2ccc(-c3nc4ccccc4o3)cc2)N(C[C@@H]2CCN(C(=O)C3CC3)C2)C1=O [Compound 11, (R)-2-(4-(benzo[d]oxazol-2-yl)phenyl)-1-((1-(cyclopropanecarbonyl)pyrrolidin-3-yl)methyl)-4,4-dimethyl-1H-imidazol-5(4H)-one] |  |  | 6.20 | 5.41 |
| CC1(C)N=C(c2ccc(-c3ccc(-c4ccncc4)cc3)cc2)N(C[C@@H]2CCN(C(=O)C3CC3)C2)C1=O [Compound 15, (R)-1-((1-(cyclopropanecarbonyl)pyrrolidin-3-yl)methyl)-4,4-dimethyl-2-(4′-(pyridin-4-yl)-[1,1′-biphenyl]-4-yl)-1H-imidazol-5(4H)-one] |  |  | 7.40 | 6.75 |
| Cn1cc(-c2ccc(-c3ccc(C4=NC(C)(C)C(=O)N4C[C@@H]4CCN(C(=O)C5CC5)C4)cc3)cc2)cn1 [Compound 16, (R)-1-((1-(cyclopropanecarbonyl)pyrrolidin-3-yl)methyl)-4,4-dimethyl-2-(4′-(1-methyl-1H-pyrazol-4-yl)-[1,1′-biphenyl]-4-yl)-1H-imidazol-5(4H)-one] |  |  | 6.99 | 6.20 |
| Cn1cc(-c2ccc(-c3ccc(C4=NC(C)(C)C(=O)N4CC4CN(C(=O)C5CC5)C4)cc3)cc2)cn1 [Compound 17, 1-((1-(cyclopropanecarbonyl)azetidin-3-yl)methyl)-4,4-dimethyl-2-(4′-(1-methyl-1H-pyrazol-4-yl)-[1,1′-biphenyl]-4-yl)-1H-imidazol-5(4H)-one] |  |  | 6.26 | 5.57 |
| CC1(C)N=C(c2ccc(-c3ccc(-c4ccncc4)cc3)cc2F)N(CC2CN(C(=O)C3CC3)C2)C1=O [Compound 22, 1-((1-(cyclopropanecarbonyl)azetidin-3-yl)methyl)-2-(3-fluoro-4′-(pyridin-4-yl)-[1,1′-biphenyl]-4-yl)-4,4-dimethyl-1H-imidazol-5(4H)-one] |  |  | 6.80 | 6.57 |
| CC1(C)N=C(c2ccc(-c3ccc4cccnc4c3)cc2)N(C[C@@H]2CCN(C(=O)C3CC3)C2)C1=O [Compound 23, (R)-1-((1-(cyclopropanecarbonyl)pyrrolidin-3-yl)methyl)-4,4-dimethyl-2-(4-(quinolin-7-yl)phenyl)-1H-imidazol-5(4H)-one] |  |  | 7.25 | 7.25 |
| CC1(C)N=C(c2ccc(-c3ccc4cccnc4c3)cc2)N(CC2CN(C(=O)C3CC3)C2)C1=O [Compound 24, 1-((1-(cyclopropanecarbonyl)azetidin-3-yl)methyl)-4,4-dimethyl-2-(4-(quinolin-7-yl)phenyl)-1H-imidazol-5(4H)-one] |  |  | 6.69 | 6.45 |
| CC1(C)N=C(c2ccc(-c3cnc4ccccc4c3)cc2)N(C[C@@H]2CCN(C(=O)C3CC3)C2)C1=O [Compound 25, (R)-1-((1-(cyclopropanecarbonyl)pyrrolidin-3-yl)methyl)-4,4-dimethyl-2-(4-(quinolin-3-yl)phenyl)-1H-imidazol-5(4H)-one] |  |  | 6.15 | 6.17 |
| CC1(C)N=C(c2ccc(-c3ccc(-c4ccncc4)cc3)cc2)N(CC2CN(C(=O)C3CC3)C2)C1=O [Compound 26, 1-((1-(cyclopropanecarbonyl)azetidin-3-yl)methyl)-4,4-dimethyl-2-(4′-(pyridin-4-yl)-[1,1′-biphenyl]-4-yl)-1H-imidazol-5(4H)-one] |  |  | ~6.22 | 6.08 |
| CC1(C)N=C(c2ccc(-c3ccc4cnccc4c3)cc2)N(CC2CN(C(=O)C3CC3)C2)C1=O [Compound 27, 1-((1-(cyclopropanecarbonyl)azetidin-3-yl)methyl)-2-(4-(isoquinolin-6-yl)phenyl)-4,4-dimethyl-1H-imidazol-5(4H)-one] |  |  | 6.72 | 6.41 |
